Laboratory results from patent publication US8304425B2, “Pyrrolidinone, pyrrolidine-2,5-dione, pyrrolidine and thiosuccinimide derivatives, compositions and methods for treatment of cancer” (ArQule, Inc., priority 2007, dated 2012).
Where a name gives a salt, the structure may show the parent alone. Read-outs that look alike come from different tables or passages of the source. Where a SMILES comes first, the peptide text is derived from it. The star is where a group is joined. Cbz = O=C(OCc1ccccc1)*; CH2F = FC*

Tests used:
[1] = target: T1, Recombinant unphosphorylated c-Met comprising residues 1038-1346 (Homo sapiens, UniProt P08581); experiment: c-Met 33P assay; assay type: biochemical; details: 15 minutes preincubation, 100 μM ATP, IGF-1Rtide substrate, read-out: c-Met, p33 assay
T1 construct: The DNA fragment encoding the kinase domain (1038-1346) was inserted into Novagen vector pet28a; His6 (N); made in house; host or cells: E. coli BL21(DE3)RIL
T1 sequence (P08581 1038-1346): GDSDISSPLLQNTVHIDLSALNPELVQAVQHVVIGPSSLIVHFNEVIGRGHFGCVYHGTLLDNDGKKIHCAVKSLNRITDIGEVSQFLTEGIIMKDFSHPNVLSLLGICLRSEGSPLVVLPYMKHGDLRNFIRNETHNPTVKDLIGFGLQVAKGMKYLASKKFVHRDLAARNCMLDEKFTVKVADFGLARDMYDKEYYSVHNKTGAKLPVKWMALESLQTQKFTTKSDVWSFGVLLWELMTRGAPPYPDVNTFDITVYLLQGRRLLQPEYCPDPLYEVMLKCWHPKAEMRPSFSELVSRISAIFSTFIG
From the text: cDNA of full-length c-Met purchased from Origen Technologies was used as template for PCR amplification. The DNA fragment encoding the kinase domain (1038-1346) was inserted into Novagen vector pet28a between Nco1 and Sal1 sites. The primers were designed to contain a six-histidine tag to the N-terminus. In order to express dephosphorylated c-Met kinase protein, a tyrosine phosphatase PTP1B (1-283) was sequentially ligated into the made construct between Sal1 and NotI sites. A second ribosome binding site was incorporated in the PTP1B primer after the Sal1 site. The N-terminal His-tagged proteins were expressed in Circlegrow broth (Q-Biogen). The transformed E. coli cell line BL21(DE3)RIL (Stratagene) was cultured to OD=0.8 at 37° C. and induced with 0.3 mM of IPTG for overnight at 12° C. The co-expressed protein was purified by metal-chelation chromatography followed by anion and cation columns. In brief, 4 liters of cells were lysed by sonication in 140 ml buffer containing 20 mM MOPS pH=6.5, 200 mM NaCl, 7.5% glycerol, 0.1% Igepal, supplied with 1 mM PMSF. The supernatant was obtained by centrifugation at 50,000 g for 30 minutes and followed by incubation with 8 mL of Ni-NTA His Bind resin (Novagen) at 4° C. for one hour. A second step 50 mL wash buffer (with 100 mM NaCl and 5 mM imidazole) was applied after initial wash with the lysis buffer. Protein was eluted by 200 mM imidazole pH=8.5, 100 mM NaCl and 7.5% glycerol and directly cleared by passing 10 mL QFF column. The salt concentration and the pH value of the protein flow through were adjusted to 50 mM and 7.5 by dilution, and then loaded to 1 mL SP FF column. The protein was further gel-filtered in an equilibrium buffer of 20 mM TrisHCl pH=8.5, 150 mM NaCl, 7.5% glycerol and 2 mM DTT. The monomeric unphosphorylated c-Met protein was concentrated to 30 mg/mL for storage at −80° C.
Recombinant unphosphorylated c-Met comprising residues 1038-1346 (12.5 ng) was pre-incubated with increasing concentrations of compounds for 15 minutes at room temperature. Following preincubation with compounds, 100 μM of IGF-1Rtide substrate and 100 μM ATP containing 2.5 μCi [^33P-γATP] was added to the mixture. The reaction was carried out for 30 minutes in a Reaction Buffer containing 8 mM MOPS-NaOH pH=7.0, 200 μM EDTA, 5 mM Magnesium acetate, 200 μM dithiothreitol (DTT) and 10 mM Na3VO4. The reaction was then terminated with 10 μL of 3% phosphoric acid. Ten μL were transferred onto a filterplate and were washed 3-times with 1% phosphoric acid; counts were read with a microbeta counter, and IC50 for c-Met inhibition was determined for each compound.

HT29 cells [2] = experiment: MTS assay; assay type: cell-based; details: then 48 hours drug-free medium, MTS readout
Experimental: HT29 cells were seeded in 96-well plates at 1,800 cells/well overnight in medium with 10% FBS. The next day, cells were treated with increasing concentrations of compounds for 24 hours at 37° C. After the treatments, the compound-containing medium was removed, cells were washed twice with PBS, and incubated in drug-free medium containing 10% FBS for an additional 48 hours. After addition of MTS and PMS for 4 hours at concentrations of 2 mg/mL and 0.92 mg/mL, respectively, the results were quantitated by spectrophotometry at λ=490 nm and IC50 for each compound was determined.

HT29 cells [3] = experiment: Annexin V-Fluos cell death high content imaging after met siRNA transfection; assay type: cell-based; details: increased concentrations of caspase inhibitor for 1 additional day after transfection
Experimental: Exponentially growing HT29 cells were plated in black 96-well plates at 5,000 cells/well overnight in medium with 10% FBS. The next day, cells were transiently transfected for 2 days using DharmaFECT 4 reagent with a pool of four met-specific 21-nucleotide RNA oligonucleotides forming a 19-bp duplex core with 2-nucleotide 3′ overhang in combination (Dharmacon, Inc., Lafayette, Colo.). Transfection of gapdh siRNA (Dharmacon, Inc.) and of a non-targeting siRNA under the same conditions was done in parallel as controls (Dharmacon, Inc.). Cells were then incubated in the absence or the presence of increasing concentrations of ZvAD-FMK, an irreversible caspase inhibitor for 1 additional day. Cells were incubated for at least 10 minutes in a labeling solution (10 mM HEPES, 140 mM NaCl and 6 mM CaCl2) containing […] Hoescht 33342 (blue channel; Molecular Probes/Invitrogen Corp., Natick, Mass.), 500 times diluted Annexin V-Fluos (green channel; Roche Applied Science, Indianapolis, Ind.) and 1 μg/ml propidium iodide (red channel; Roche Applied Science). High content image acquisition and analysis were carried out using a Beckman Coulter IC100 Cytometer. The program was set to take four images per well. […] Images were processed and numbers of positive cells for each channel and each condition were determined using Cytoshop 2.1 software (Beckman Coulter, Inc.). […]

[4] = Homo sapiens, HT-29, 24 hours treatment
[5] = 24 hours treatment, read-out: HT-29, IC50

Row | Molecule | melting point [°C] | IC50 [1] [µM] | IC50 (HT29 cells [2]; [4]) [µM] | levels of cell death in met siRNA transfected cells (HT29 cells [3]) | IC50 (HT29 cells [2]; [5]) [µM]
1 | c1ccc2c([C@@H]3CNC[C@H]3c3cn4c5c(cccc35)CCC4)c[nH]c2c1 (as salt: HCl) [Example 7, 1-[(3R,4R)-4-(1H-indol-3-yl)-pyrrolidin-3-yl]-5,6-dihydro-4H-pyrrolo[3,2,1-ij]quinoline] | 239 to 240 | – | – | – | –
2 | O=C1NCC(c2cn3c4c(cccc24)CCC3)C1c1c[nH]c2ccccc12 (mixture of isomers) [Example 1, 4-(5,6-dihydro-4H-pyrrolo[3,2,1-ij]quinolin-1-yl)-3-(1H-indol-3-yl)-pyrrolidin-2-one] | 260 to 262 | ≥ 10 | ≤ 1 | – | –
3 | O=C1NC[C@@H](c2c[nH]c3ccccc23)[C@@H]1c1cn2c3c(cccc13)CCC2 (racemic) [Example 4, (±)-trans-3-(5,6-dihydro-4H-pyrrolo[3,2,1-ij]quinolin-1-yl)-4-(1H-indol-3-yl)-pyrrolidin-2-one] | 241 to 243 | 1 to 10 | ≤ 1 | – | –
4 | O=C1NC[C@@H](c2cccc(C(F)(F)F)c2)[C@@H]1c1cn2c3c(cccc13)CCC2 (racemic) [Example 5, (±)-trans-3-(5,6-Dihydro-4H-pyrrolo[3,2,1-ij]quinolin-1-yl)-4-(3-trifluoromethyl-phenyl)-pyrrolidin-2-one] | 82 to 85 | – | ≥ 10 | – | –
5 | COc1cccc([C@@H]2CNC(=O)[C@H]2c2cn3c4c(cccc24)CCC3)c1 (racemic) [Example 6, (±)-trans-3-(5,6-Dihydro-4H-pyrrolo[3,2,1-ij]quinolin-1-yl)-4-(3-methoxy-phenyl)-pyrrolidin-2-one] | 191 to 194 | – | ≥ 10 | – | –
6 | c1ccc2c([C@@H]3CNC[C@H]3c3cn4c5c(cccc35)CCC4)c[nH]c2c1 [Example 7, 1-[(3R,4R)-4-(1H-indol-3-yl)-pyrrolidin-3-yl]-5,6-dihydro-4H-pyrrolo[3,2,1-ij]quinoline] | – | ≥ 10 | ≤ 1 | – | –
7 | CCNC(=O)N1C[C@@H](c2c[nH]c3ccccc23)[C@H](c2cn3c4c(cccc24)CCC3)C1 [Example 8, (3R,4R)-3-(5,6-dihydro-4H-pyrrolo[3,2,1-ij]quinolin-1-yl)-4-(1H-indol-3-yl)-pyrrolidine-1-carboxylic acid ethylamide] | 278 to 279 | ≥ 10 | ≥ 10 | – | –
8 | O=S(=O)(c1ccccc1)N1C[C@@H](c2c[nH]c3ccccc23)[C@H](c2cn3c4c(cccc24)CCC3)C1 [Example 9, 1-[(3R,4R)-1-benzenesulfonyl-4-(1H-indol-3-yl)-pyrrolidin-3-yl]-5,6-dihydro-4H-pyrrolo[3,2,1-ij]quinoline] | 115 to 125 | ≥ 10 | ≥ 10 | – | –
9 | CC(C)S(=O)(=O)N1C[C@@H](c2c[nH]c3ccccc23)[C@H](c2cn3c4c(cccc24)CCC3)C1 [Example 10, 1-[(3R,4R)-4-(1H-indol-3-yl)-1-(propane-2-sulfonyl)-pyrrolidin-3-yl]-5,6-dihydro-4H-pyrrolo[3,2,1-ij]quinoline] | 100 to 115 | ≥ 10 | ≥ 10 | – | –
10 | O=C(C1CCC1)N1C[C@@H](c2c[nH]c3ccccc23)[C@H](c2cn3c4c(cccc24)CCC3)C1 [Example 11, cyclobutyl-[(3R,4R)-3-(5,6-dihydro-4H-pyrrolo[3,2,1-ij]quinolin-1-yl)-4-(1H-indol-3-yl)-pyrrolidin-1-yl]-methanone] | 253 to 255 | ≥ 10 | ≥ 10 | – | –
11 | CC(C)(C)CC(=O)N1C[C@@H](c2c[nH]c3ccccc23)[C@H](c2cn3c4c(cccc24)CCC3)C1 [Example 12, 1-[(3R,4R)-3-(5,6-dihydro-4H-pyrrolo[3,2,1-ij]quinolin-1-yl)-4-(1H-indol-3-yl)-pyrrolidin-1-yl]-3,3-dimethyl-butan-1-one] | 202 to 204 | ≥ 10 | ≥ 10 | – | –
12 | COC(=O)C[C@H](NC(=O)[C@H](C)NC(=O)[C@@H](NC(=O)OCc1ccccc1)C(C)C)C(=O)CF [ZvAD-FMK] (Cbz-Val-Ala-Asp(OMe)-CH2F) | – | – | – | decreased the levels of cell death | –
13 | (3R,4R)-4-(5,6-dihydro-4H-pyrrolo[3,2,1-ij]quinolin-1-yl)-3-(1H-indol-3-yl)-5-thioxo-pyrrolidin-2-one and (3R,4R)-3-(5,6-dihydro-4H-pyrrolo[3,2,1-ij]quinolin-1-yl)-4-(1H-indol-3-yl)-5-thioxo-pyrrolidin-2-one (1/1 mixture) [Example 2] | – | ≤ 1 | – | – | ≤ 1
14 | (3R,4R)-4-(5,6-dihydro-4H-pyrrolo[3,2,1-ij]quinolin-1-yl)-3-(1H-indol-3-yl)-pyrrolidin-2-one and (3R,4R)-3-(5,6-dihydro-4H-pyrrolo[3,2,1-ij]quinolin-1-yl)-4-(1H-indol-3-yl)-pyrrolidin-2-one (1/1 mixture) [Example 3] | – | ≥ 10 | – | – | ≤ 1
